Calls of active or inactive are those of the source.
Columns and labels:
[1] = target: Voltage-dependent T-type calcium channel subunit alpha-1H (Homo sapiens, UniProt O95180); type: functional;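 note: channel activity triggered by adding a high calcium stimulation buffer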
[2] = reduced cellular PGC1a acetyl-lysine signal – cell-based, cherry-picked samples, dose response (AID 720514); type: functional;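 note: potency may reflect raised or lowered acetylation signal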
[3] = blockade of melanocortin 4 receptor signaling – cell-based, plate reader, cherry pick, counter-screen for LGR2 antagonist project, dose response (AID 743444); type: functional;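 note: transfected HEK 293 cells stimulated with alpha-MSH peptide; potency of inhibitors of the alpha-MSH evoked signal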
[4] = blockers of bursicon-stimulated LGR2 cAMP reporter – cell-based, HEK293, CRE-luciferase reporter, cherry pick, set 2, dose response (AID 743343); type: functional;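 note: transfected cells were stimulated with diluted bursicon conditioned medium after compound addition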
[5] = viability loss in HEK293 cells – cell-based, plate reader, cherry-picked samples, cytotoxicity control, dose response (AID 743446); type: functional
[6] = A549 cell cytotoxicity, dose response, cytotoxicity control, plate reader, cherry-pick, antagonist series (AID 743412); type: functional, cell-based
[7] = Fluorescence-based cell-based high throughput dose response assay for inhibitors of the interaction of nucleotide-binding oligomerization domain containing 2 (NOD2) and the receptor-interacting serine-threonine kinase 2 (RIPK2).; type: functional; conditions: Homo sapiens
INS1 = assay: INS-1E survival protection against cytokine death – cell-based, luminescence, retest, dose response (AID 449756); type: functional; conditions: Rattus norvegicus;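 note: cell death triggered by IL-1 beta plus TNF-alpha plus IFN-gamma mixture; protective hits raise ATP signal compared with cytokine alone wells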
[8] = target: Heat shock protein HSP 90-alpha (Homo sapiens, UniProt P07900); type: functional, organism-based
[9] = toxicity toward HepG2 liver cells – cell-based, plate reader, cherry-pick, antagonist series, cytotoxicity control, dose response (AID 743416); type: functional
Prothrombin = Prothrombin (Homo sapiens, UniProt P00734); assay: Thrombin 1536 HTS Dose Response Confirmation. [Related pubchem assays: 1046 (Thrombin 1536 HTS; hits were confirmed in this assay)]; type: functional
[10] = target: FAD-linked sulfhydryl oxidase ALR (Homo sapiens, UniProt P55789); assay: ALR-catalysed DTT oxidation blockers – biochemical, H2O2 detection, luminescence, cherry-pick, dose response (AID 493248)
[11] = target: T1, Oxysterols receptor LXR-beta (Homo sapiens, UniProt P55055); type: functional, cell-based;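 note: Cell-based luminescence dose-response assay of agonist activity at LXR, run as a confirmatory counterscreen to a daf-12 agonist screen; HEK293 cells with Gal4-LXR fusion and GAL4-driven luciferase reporter; agonist potency from rising luciferase signal of a Gal4-LXR reporter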
T1 sequence (P55055 whole entry): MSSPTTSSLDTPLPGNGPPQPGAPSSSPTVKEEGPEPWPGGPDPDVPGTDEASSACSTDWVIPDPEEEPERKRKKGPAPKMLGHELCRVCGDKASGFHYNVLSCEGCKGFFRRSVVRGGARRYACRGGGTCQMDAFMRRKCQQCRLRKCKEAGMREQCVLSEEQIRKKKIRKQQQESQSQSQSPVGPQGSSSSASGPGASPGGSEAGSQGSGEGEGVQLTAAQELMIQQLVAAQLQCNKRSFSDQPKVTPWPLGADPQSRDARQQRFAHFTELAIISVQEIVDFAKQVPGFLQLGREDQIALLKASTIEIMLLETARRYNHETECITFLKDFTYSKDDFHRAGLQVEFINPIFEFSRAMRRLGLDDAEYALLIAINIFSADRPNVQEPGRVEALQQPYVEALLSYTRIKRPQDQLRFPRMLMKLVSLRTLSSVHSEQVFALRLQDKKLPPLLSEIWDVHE

[12] = target: T2, Epstein-Barr nuclear antigen 1 (Epstein-Barr virus (strain B95-8) (HHV-4) (Human herpesvirus 4), UniProt P03211); assay: inhibition of EBV nuclear antigen 1 DNA binding – biochemical, fluorescence polarization, 1536-well, dose response (AID 2381); design: species or system human gammaherpesvirus 4;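 note: fluorescence polarization of a Cy5 DNA probe bound by EBNA-1 protein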
T2 sequence (P03211 whole entry): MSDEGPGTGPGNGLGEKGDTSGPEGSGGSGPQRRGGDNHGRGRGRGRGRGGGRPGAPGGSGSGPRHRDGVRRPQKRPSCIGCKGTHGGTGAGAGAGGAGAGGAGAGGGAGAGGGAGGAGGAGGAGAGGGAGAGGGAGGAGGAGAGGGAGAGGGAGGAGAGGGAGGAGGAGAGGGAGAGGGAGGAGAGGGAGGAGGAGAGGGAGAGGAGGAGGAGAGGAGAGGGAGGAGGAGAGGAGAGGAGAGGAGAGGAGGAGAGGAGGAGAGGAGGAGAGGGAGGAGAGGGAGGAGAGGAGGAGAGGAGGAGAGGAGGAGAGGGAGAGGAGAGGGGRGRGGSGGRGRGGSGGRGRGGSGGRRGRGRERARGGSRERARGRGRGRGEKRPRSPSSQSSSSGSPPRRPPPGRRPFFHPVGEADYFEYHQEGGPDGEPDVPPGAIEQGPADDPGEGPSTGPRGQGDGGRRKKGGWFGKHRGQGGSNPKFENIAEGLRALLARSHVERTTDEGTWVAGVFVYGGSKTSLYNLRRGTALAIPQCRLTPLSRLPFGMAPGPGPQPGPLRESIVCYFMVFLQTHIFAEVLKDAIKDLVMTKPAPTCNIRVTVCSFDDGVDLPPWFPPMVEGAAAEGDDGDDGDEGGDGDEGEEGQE

[13] = target: T3, Lytic switch protein BZLF1 (Epstein-Barr virus (strain B95-8) (HHV-4) (Human herpesvirus 4), UniProt P03206); assay: inhibition of BZLF1 ZTA DNA binding – biochemical, fluorescence polarization, Epstein-Barr virus, 1536-well, counter-screen for EBNA-1 inhibitor project, dose response (AID 2377); design: species or system human gammaherpesvirus 4;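 note: fluorescence polarization of Cy5-labelled ZRE DNA probe bound by purified Zta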
T3 sequence (P03206 whole entry): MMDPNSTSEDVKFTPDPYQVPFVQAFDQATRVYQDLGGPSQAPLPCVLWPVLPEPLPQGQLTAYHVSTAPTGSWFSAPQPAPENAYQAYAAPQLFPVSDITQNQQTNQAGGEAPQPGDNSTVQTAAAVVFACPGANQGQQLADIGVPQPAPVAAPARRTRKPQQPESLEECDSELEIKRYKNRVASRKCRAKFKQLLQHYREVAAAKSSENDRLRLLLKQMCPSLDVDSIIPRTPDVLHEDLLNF

[14] = P. falciparum Dd2 growth inhibitors, dose response, SYBR Green, cherry-picked samples (AID 1159567); type: functional, cell-based
[15] = toxicity to human hepatoma HepG2 cells – cell-based, cherry-picked samples, cytotoxicity control, dose response (AID 1159577); type: functional
[16] = Trypanosoma cruzi growth suppression in host cells – NIH3T3 host cells, beta-gal luminescence, confirmation (AID 2044); type: functional, cell-based;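 note: intracellular parasites grown in NIH/3T3 mouse fibroblasts as host cells; luminescent beta-galactosidase reporter signal from transgenic T. cruzi replicating inside host cells; inhibitors lower the luminescence signal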
Paired box protein Pax-8 = Paired box protein Pax-8 (Homo sapiens, UniProt Q06710); assay: PAX8 transcriptional activity inhibition in RMG-I – RMG-I cells, luciferase, cherry-pick, dose response (AID 687027); type: functional, cell-based;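 note: luciferase reporter driven by Pax8 target thyroperoxidase promoter measured by SteadyGlo luminescence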
[17] = loss of viability in HepG2 cells – cell-based, CellTiter-Glo, cherry-picked, cytotoxicity control for Shn3 inhibitor project, dose response (AID 624134); type: functional
[18] = reduction of Shn3 3'UTR-driven luciferase in osteoblasts – cell-based, Clone20 osteoblasts, firefly luciferase, cherry-picked, dose response (AID 624132); type: functional;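 note: firefly luciferase luminescence from reporter carrying the Shn3 3'UTR in osteoblasts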
CAAX prenyl protease 2 [19] = target: T4, CAAX prenyl protease 2 (Saccharomyces cerevisiae S288c, UniProt Q03530); type: biochemical
T4 sequence (Q03530 whole entry): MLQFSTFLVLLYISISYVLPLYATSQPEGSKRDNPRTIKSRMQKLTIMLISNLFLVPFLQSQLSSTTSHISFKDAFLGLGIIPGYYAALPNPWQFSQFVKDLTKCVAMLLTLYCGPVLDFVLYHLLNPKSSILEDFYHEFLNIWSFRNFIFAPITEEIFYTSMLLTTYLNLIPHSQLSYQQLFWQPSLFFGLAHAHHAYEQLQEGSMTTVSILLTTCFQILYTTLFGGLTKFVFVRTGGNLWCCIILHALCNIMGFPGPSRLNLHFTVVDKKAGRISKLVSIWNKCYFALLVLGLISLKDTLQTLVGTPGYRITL

[20] = target: T5, DNA repair protein RAD52 homolog (Homo sapiens, UniProt P43351); type: functional, biochemical
T5 sequence (P43351 whole entry): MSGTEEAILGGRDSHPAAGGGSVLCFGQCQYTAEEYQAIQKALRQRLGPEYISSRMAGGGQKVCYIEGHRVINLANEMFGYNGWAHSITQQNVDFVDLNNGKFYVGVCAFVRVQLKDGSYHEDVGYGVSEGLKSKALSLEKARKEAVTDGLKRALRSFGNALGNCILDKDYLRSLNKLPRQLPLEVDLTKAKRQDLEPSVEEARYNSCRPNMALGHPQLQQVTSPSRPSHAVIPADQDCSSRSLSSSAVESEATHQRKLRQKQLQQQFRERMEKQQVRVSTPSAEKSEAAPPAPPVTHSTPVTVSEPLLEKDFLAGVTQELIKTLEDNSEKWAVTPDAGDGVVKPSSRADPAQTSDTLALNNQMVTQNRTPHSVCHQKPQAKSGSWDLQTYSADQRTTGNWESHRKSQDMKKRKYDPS

[21] = NIH3T3 cell viability loss – ATP luminescence, mouse fibroblasts, counter-screen, dose response (AID 2010); type: functional, cell-based;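 note: cells exposed to compound for about 90 hours before reading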
[22] = non-specific 3'UTR reporter inhibition in Clone20-Shn3RL – cell-based, Renilla luciferase, cherry-picked, counter-screen for Shn3 inhibitor project, dose response (AID 624133); type: functional
CAAX prenyl protease 2 [23] = target: T6, CAAX prenyl protease 2 (Homo sapiens, UniProt Q9Y256); assay: inhibition of Ras-converting CAAX protease Rce1 – biochemical, yeast membranes, quenched-peptide fluorescence, cherry-pick, dose response (AID 588849)
T6 sequence (Q9Y256 whole entry): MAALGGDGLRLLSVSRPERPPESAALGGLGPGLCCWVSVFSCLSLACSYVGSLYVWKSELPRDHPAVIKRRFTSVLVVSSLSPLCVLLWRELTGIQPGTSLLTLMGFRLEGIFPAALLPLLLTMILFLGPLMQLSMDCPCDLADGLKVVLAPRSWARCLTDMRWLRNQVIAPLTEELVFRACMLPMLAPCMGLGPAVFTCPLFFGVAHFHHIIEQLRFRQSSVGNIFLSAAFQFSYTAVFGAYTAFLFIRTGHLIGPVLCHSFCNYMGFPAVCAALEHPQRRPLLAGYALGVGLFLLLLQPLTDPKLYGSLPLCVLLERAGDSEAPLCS

[24] = A2780 cell killing – plate reader, dry powder samples, cytotoxicity control, dose response (AID 743046); type: functional, cell-based
[25] = target: Photoreceptor-specific nuclear receptor (Homo sapiens, UniProt Q9Y5X4); assay: ligands suppressing NR2E3 nuclear receptor activity – biochemical, TR-FRET, dose response (AID 463256); type: functional
[26] = target: Peroxisome proliferator-activated receptor gamma/Nuclear receptor corepressor 2 (Homo sapiens, UniProt P37231+Q9Y618); assay: Counterscreen for NR2E3 inverse agonists: TR-FRET-based biochemical high throughput dose response assay to identify inverse agonists of the interaction between peroxisome proliferator-activated receptor gamma (PPARg) and nuclear receptor co-repressor 2 (NCOR2).; type: functional
[27] = Luminescence-based counterscreen assay for KLF5 inhibitors: dose response cell-based high throughput screening assay to identify cytotoxic compounds using the IEC-6 intestinal epithelial cell line. [Related pubchem assays: 1700 (Primary screen.), 1834 (Confirmation screen.), 1858 (Summary AID.), 1905 (Counterscreen.)]; type: functional
HEK293 = assay: EBV LMP1 TES2 canonical NF-kB signalling blockers – cell-based, HEK293, luciferase, cherry-pick, dose response (AID 588343); type: functional; conditions: Homo sapiens

Chain of Voltage-dependent T-type calcium channel subunit alpha-1H (O95180 whole entry): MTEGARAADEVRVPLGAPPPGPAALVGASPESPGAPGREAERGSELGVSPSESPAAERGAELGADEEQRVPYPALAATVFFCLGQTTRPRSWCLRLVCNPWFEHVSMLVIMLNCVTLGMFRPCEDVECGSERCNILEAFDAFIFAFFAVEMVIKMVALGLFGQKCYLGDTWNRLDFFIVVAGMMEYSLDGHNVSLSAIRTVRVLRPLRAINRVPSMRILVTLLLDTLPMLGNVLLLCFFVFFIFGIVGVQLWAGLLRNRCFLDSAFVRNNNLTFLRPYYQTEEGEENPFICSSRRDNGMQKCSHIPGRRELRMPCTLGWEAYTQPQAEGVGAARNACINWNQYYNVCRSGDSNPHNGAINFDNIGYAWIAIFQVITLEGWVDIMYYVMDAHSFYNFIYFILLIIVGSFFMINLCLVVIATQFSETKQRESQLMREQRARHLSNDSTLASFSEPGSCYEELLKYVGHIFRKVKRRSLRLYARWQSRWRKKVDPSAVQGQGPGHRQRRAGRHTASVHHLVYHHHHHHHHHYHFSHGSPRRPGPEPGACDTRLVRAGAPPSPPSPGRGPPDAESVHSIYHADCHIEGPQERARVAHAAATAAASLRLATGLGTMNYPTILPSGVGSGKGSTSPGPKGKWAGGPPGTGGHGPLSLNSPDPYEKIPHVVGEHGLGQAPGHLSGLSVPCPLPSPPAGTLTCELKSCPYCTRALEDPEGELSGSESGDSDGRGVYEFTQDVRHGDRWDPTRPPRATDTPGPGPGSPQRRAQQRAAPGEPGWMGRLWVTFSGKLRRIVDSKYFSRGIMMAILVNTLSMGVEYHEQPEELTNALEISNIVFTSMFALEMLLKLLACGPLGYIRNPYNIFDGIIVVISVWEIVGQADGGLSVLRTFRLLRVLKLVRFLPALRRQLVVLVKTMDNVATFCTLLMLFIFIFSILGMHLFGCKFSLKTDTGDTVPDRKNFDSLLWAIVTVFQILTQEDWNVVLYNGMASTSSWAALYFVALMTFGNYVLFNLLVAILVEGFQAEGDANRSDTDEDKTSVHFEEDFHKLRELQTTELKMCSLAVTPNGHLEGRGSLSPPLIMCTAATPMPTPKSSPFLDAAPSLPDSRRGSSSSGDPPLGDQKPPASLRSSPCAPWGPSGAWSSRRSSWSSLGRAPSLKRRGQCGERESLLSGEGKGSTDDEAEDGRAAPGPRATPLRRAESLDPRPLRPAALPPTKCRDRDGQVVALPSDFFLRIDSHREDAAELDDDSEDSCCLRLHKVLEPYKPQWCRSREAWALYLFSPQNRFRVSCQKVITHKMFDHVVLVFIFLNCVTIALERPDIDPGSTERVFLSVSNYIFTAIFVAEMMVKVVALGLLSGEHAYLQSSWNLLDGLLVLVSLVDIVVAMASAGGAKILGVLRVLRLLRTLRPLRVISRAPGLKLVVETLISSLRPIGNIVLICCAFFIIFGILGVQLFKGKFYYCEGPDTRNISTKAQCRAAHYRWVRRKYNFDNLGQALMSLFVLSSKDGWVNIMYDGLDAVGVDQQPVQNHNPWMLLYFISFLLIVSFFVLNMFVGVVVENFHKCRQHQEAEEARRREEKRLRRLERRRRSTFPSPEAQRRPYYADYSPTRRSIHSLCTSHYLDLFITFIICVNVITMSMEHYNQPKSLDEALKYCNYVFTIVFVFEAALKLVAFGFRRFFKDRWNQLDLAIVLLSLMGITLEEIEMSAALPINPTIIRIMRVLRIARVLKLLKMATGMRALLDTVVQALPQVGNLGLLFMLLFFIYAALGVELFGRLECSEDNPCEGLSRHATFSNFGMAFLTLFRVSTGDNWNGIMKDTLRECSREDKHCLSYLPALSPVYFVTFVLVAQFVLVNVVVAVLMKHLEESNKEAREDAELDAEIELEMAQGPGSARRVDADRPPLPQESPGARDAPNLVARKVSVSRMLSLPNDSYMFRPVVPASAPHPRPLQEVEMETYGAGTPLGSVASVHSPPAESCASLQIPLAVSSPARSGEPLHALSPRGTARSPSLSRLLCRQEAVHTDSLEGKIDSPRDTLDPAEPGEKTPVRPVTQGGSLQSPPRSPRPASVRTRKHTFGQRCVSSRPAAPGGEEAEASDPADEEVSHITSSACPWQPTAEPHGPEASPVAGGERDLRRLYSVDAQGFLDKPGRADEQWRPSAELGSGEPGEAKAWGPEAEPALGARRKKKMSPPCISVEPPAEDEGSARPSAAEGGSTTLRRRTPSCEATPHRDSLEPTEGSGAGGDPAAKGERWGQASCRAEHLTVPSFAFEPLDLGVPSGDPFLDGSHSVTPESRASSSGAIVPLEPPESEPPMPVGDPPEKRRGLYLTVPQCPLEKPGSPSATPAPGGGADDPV
Chain of Paired box protein Pax-8 (Q06710 whole entry): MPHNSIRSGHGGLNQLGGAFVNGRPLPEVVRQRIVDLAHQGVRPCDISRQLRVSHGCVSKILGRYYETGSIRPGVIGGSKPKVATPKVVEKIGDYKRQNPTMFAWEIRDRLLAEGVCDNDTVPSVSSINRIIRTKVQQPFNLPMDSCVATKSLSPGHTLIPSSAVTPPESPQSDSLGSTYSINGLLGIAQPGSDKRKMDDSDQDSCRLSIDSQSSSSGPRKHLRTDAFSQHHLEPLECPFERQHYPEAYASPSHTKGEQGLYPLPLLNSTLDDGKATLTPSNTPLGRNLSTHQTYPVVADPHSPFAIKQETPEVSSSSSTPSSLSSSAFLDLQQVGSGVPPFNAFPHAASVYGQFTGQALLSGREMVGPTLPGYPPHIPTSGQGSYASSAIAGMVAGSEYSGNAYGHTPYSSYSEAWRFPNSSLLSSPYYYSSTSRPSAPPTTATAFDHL
Chain of Photoreceptor-specific nuclear receptor (Q9Y5X4 whole entry): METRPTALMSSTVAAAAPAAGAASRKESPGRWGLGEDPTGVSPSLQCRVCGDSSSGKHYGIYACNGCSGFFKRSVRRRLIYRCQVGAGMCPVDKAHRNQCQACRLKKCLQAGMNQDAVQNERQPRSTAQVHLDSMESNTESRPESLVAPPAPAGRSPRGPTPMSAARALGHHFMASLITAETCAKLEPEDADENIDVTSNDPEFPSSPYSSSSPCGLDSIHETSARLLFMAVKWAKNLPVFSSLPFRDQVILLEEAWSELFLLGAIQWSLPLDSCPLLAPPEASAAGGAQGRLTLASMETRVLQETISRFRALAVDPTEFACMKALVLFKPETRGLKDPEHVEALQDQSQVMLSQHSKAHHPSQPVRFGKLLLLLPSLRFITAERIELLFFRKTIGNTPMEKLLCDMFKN
Chain of FAD-linked sulfhydryl oxidase ALR (P55789 whole entry, the tested form may be a part): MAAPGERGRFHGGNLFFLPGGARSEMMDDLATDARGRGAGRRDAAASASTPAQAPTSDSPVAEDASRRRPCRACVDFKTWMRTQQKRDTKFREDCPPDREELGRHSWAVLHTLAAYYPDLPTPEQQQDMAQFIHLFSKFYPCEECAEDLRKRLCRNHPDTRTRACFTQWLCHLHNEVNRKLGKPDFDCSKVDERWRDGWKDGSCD

CCc1ccc(-c2nc(CN3CCC(C(=O)NCc4ccc(F)cc4)CC3)c(C)o2)cc1
EC50 [1]: 4.46 µM (active)

O=C(CSc1nnnn1C1CCCCC1)N1c2ccccc2Sc2ccccc21
EC50 [1]: 7.42 µM (active)

Cc1ccccc1Oc1cc(-n2ncc(Cl)c(Cl)c2=O)ncn1
AC50 [2]: 4.25 µM (active) | AC50 [3]: 9.42 µM (active) | AC50 [4]: 7.89 µM (active) | AC50 [5]: 4.45 µM (active) | AC50 [6]: 4.53 µM (active) | IC50 [7]: 0.882 µM (active) | AC50 (INS1): 3.02 µM (active) | AC50 [8]: 3.94 µM (active) | AC50 [9]: 1.65 µM (active)

Cn1cc(C(=O)c2ccc(Cl)cc2Cl)cc1C(=O)NN=C(N)COc1ccc(F)cc1
IC50 (Prothrombin): 2.13 µM (active) | EC50 [1]: 2.48 µM (active)

COc1ccc(-c2cn3c4c(sc3n2)CCCC4)cc1
EC50 (cells): > 67.5 µM (inactive) | AC50 [10]: 0.325 µM (active) | EC50 [11]: > 67.5 µM (inactive)

Cc1sc2ncnc(SCC(=O)NNC(=O)COc3cccc4ccccc34)c2c1C
IC50 [12]: 2.02 µM (active) | IC50 [13]: > 111 µM (not active)

COc1ccccc1NC(=O)N1CCCCN2[C@@H](CO)[C@H](c3ccc(C#Cc4ccccc4)cc3)[C@@H]2C1
AC50 [14]: < 0.3 µM (active) | AC50 [15]: 9.96 µM (active)

C[n+]1c2n(c3ccccc31)N=C(c1cc(C(C)(C)C)c(O)c(C(C)(C)C)c1)CS2
EC50 [16]: 0.496 µM (active) | AC50 (Paired box protein Pax-8): 0.906 µM (active) | AC50 [17]: 13 µM (active) | AC50 [18]: 5.92 µM (active) | AC50 (CAAX prenyl protease 2 [19]): 9.21 µM (active) | AC50 [20]: 13.4 µM (active) | AC50 (INS1): 0.452 µM (active) | EC50 [21]: > 60 µM (not active) | AC50 [22]: 7.16 µM (active) | AC50 (CAAX prenyl protease 2 [23]): > 100 µM (inactive)

Cn1nnnc1Sc1ncnc2scc(-c3cccc(S(C)(=O)=O)c3)c12
AC50 [2]: 35.3 µM (active) | AC50 (Paired box protein Pax-8): 2.03 µM (active) | AC50 [3]: 2.82 µM (active) | AC50 [4]: 4.13 µM (active) | AC50 [5]: 25.8 µM (active) | AC50 [6]: 14.9 µM (active) | AC50 [9]: 17.6 µM (active)

CC1=CC(=C(C#N)C#N)C=C(C)N1CCN1CCN(C(=O)Nc2ccc(Cl)c(Cl)c2)CC1
IC50 [12]: 16.3 µM (not active) | IC50 [13]: > 111 µM (not active)

O=[N+]([O-])c1cccc(/C=N/Nc2nc(NCc3ccccc3)nc(N3CCOCC3)n2)c1
IC50 [12]: 3.45 µM (active) | IC50 [13]: > 111 µM (not active)

Cc1noc(C)c1S(=O)(=O)Nc1ccc2c(c1)C(=O)N([C@@H](C)CO)C[C@H](C)[C@H](CN(C)C(=O)Nc1ccc(C(F)(F)F)cc1)OCCCC[C@H](C)O2
AC50 (Paired box protein Pax-8): 14.2 µM (active) | AC50 [24]: 4.83 µM (active)

O=C(Nc1ccc(-c2nc3ncccc3o2)cc1)c1ccc(Br)o1
IC50 [25]: 3.5 µM (active) | IC50 [26]: 3.7 µM (active)

CCOc1cc(Br)cc(/C=N/NC(=O)c2cccnc2)c1O
IC50 [27]: 16.8 µM (not active) | AC50 (HEK293): 21.5 µM (active)

O=C(O)c1cc(-c2ccc3c(c2)OCO3)nc2ccccc12
AC50 [2]: 31 µM (active)

Cc1ccsc1C(=O)Nc1nccs1
IC50 [25]: > 39.9 µM (not active) | IC50 [26]: 27.3 µM (not active)

Reference: ChEMBL document CHEMBL1201862, “PubChem BioAssay data set” (2004)
